Laboratory results from PubChem BioAssay (NCI).
Several values for one entry are separate records, joined by “and”; a condition that tells them apart may be missing. Equal entries are not always repeated.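 1) Cells in 96-well plates. 2) Compound, 48 h, 5 concentrations. 3) Linear interpolation between surrounding doses. 4) Unreached endpoint = highest concentration. GI50 marks 50% less growth. TGI denotes the concentration required for complete inhibition of growth.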

Columns and labels:
Experiment in all cases: NCI-60 cell line screen, 48 h
HCC-2998 colon = test system: HCC-2998 colon
SF-268 CNS = test system: SF-268 CNS
RPMI-8226 leukemia = test system: RPMI-8226 leukemia
EKVX NSCLC = test system: EKVX NSCLC
OVCAR-4 ovarian = test system: OVCAR-4 ovarian
CCRF-CEM leukemia = test system: CCRF-CEM leukemia
U251 CNS = test system: U251 CNS
NCI-H23 lung = test system: NCI-H23 lung
OVCAR-3 ovarian = test system: OVCAR-3 ovarian
NCI-H226 lung = test system: NCI-H226 lung
SK-MEL-28 melanoma = test system: SK-MEL-28 melanoma
KM20L2 colon = test system: KM20L2 colon
M14 melanoma = test system: M14 melanoma
UO-31 renal = test system: UO-31 renal
HL-60(TB) leukemia = test system: HL-60(TB) leukemia
IGROV1 ovarian = test system: IGROV1 ovarian

Structure (SMILES) | TGI (HCC-2998 colon) | TGI (SF-268 CNS) [µM] | TGI (RPMI-8226 leukemia) [µM] | TGI (EKVX NSCLC) [µM] | TGI (OVCAR-4 ovarian) [µM] | TGI (CCRF-CEM leukemia) [µM] | TGI (U251 CNS) [µM] | TGI (NCI-H23 lung) [µM] | TGI (OVCAR-3 ovarian) [µM] | TGI (NCI-H226 lung) [µM] | TGI (SK-MEL-28 melanoma) [µM] | TGI (KM20L2 colon) | TGI (M14 melanoma) [µM] | TGI (UO-31 renal) [µM] | TGI (HL-60(TB) leukemia) [µM] | TGI (IGROV1 ovarian) [µM] | GI50 (HCC-2998 colon) | GI50 (NCI-H226 lung) | GI50 (SK-MEL-28 melanoma) [µM] | GI50 (M14 melanoma) [µM]
O=C(O)C(Cc1ccc(O)cc1)N=Cc1nc(-c2ccccc2)oc1O (configuration not stated) | > 100 µM | > 100 | > 100 | > 100 | > 100 | > 100 | > 100 | > 100 | > 100 | > 100 | > 100 | > 100 µM | > 100 | > 100 | > 100 |  |  |  |  | 
COc1cc(Br)c(/C=N/N=C(\N)NO)cc1OC | 26.3 µM | 30.6 | > 100 | > 100 | > 100 | > 100 | > 100 | 69 | > 100 | 31.5 | > 100 | 47.2 µM | 34.7 | > 100 | 52.6 | > 100 |  |  |  | 
Nc1ccc(C(=O)NN2C(=O)C(Cl)C2c2ccc(O)cc2)cc1 (configuration not stated) |  | 27 | > 100 | 36.1 | 41.4 | 33.8 | 29.6 | 35.2 | 29.2 | 57.3 | 40.7 | 41.9 µM | 31.4 | 57.9 | 33.7 | 32.9 |  |  |  | 
COc1cc2c(c(OC)c1OC)[C@@H]1CCCCC[C@@H]1CCC2=O | > 100 µM | > 100 | > 64.1 | > 100 | > 100 | > 77.8 | > 100 | > 100 | > 100 | > 100 | > 100 | > 100 µM | > 100 | > 100 | > 63.4 | > 100 |  |  |  | 
CC(=O)NC1=C(NCCO)C(=O)c2ccccc2C1=O | > 50 µM | > 50 |  | > 50 | > 50 | > 50 | > 50 | > 50 | > 50 | > 50 | > 50 | > 50 µM | > 50 | > 50 | > 50 | > 50 |  |  |  | 
COc1cc(CNc2ccc(C)cc2)cc(OC)c1OC | 1.16 µM and 2.48 µM | > 90.3 | > 50.2 | > 100 | > 100 | > 83.6 | 1.2 | 3.08 | 0.597 |  | > 100 | 0.447 µM and 0.939 µM | > 100 | > 100 |  | > 100 | 0.124 µM and 0.365 µM | 0.284 µM and 0.72 µM | 0.525 | 0.124
Cc1cc(NS(=O)(=O)c2ccc(NC(=O)c3ccc4nc5ccccc5c(Nc5ccc(S(N)(=O)=O)cc5)c4c3)cc2)no1 | > 100 µM | > 100 | 68 | 63 | 89.9 | 78.3 | 64.7 | 95.2 | 74.4 | > 100 | 50.7 |  | > 100 | 43.4 | 56.2 | > 100 |  |  |  | 
C=C(Cl)C(Cl)(CBr)CCCC(C)C (configuration not stated) | 34.1 µM | 40.1 | > 27.3 | 35 | > 100 | > 100 | 21.9 | > 100 | 12.4 | > 100 | 37.3 |  | > 100 | 39.2 | > 55.1 | > 100 |  |  |  | 
c1ccc([P+](Cc2ccc(C[P+](c3ccccc3)(c3ccccc3)c3ccccc3)s2)(c2ccccc2)c2ccccc2)cc1 | > 100 µM | > 100 | > 100 | > 100 | > 100 | > 100 | > 100 | > 100 | > 100 | > 100 | > 100 |  | > 100 | > 100 | > 100 | > 100 |  |  |  | 
CCc1cn(C2CC(CO)C(CO)S2)c(=O)[nH]c1=O (configuration not stated) | > 100 µM | > 100 | > 100 | > 100 | > 100 | > 100 | > 100 | > 100 | > 100 | > 100 | > 100 |  | > 100 | > 100 | > 100 | > 100 |  |  |  | 
CN(C)Cc1cc(C(=O)/C=C/c2ccc(Cl)cc2Cl)cc(CN(C)C)c1O | 20.2 µM | 20 | > 100 | 19.7 | 13.1 | 8.88 | 15.7 | 22.6 | 11.6 | 24 | 19.1 |  | 13.3 | 6.01 | 8.67 | 10.4 |  |  |  | 
CC1=NN(c2nc(N)nc(CCl)n2)C(C)(C)C1 | 66.1 µM | 68 | > 100 | 42.1 | 27 | > 52.7 | > 63.3 | 28.6 | > 51.8 | > 100 | > 75.8 |  | > 75.4 | 19.7 | > 24.9 | 20.5 |  |  |  | 
c1ccc(CSCCC(SCc2ccccc2)SCc2ccccc2)cc1 | > 10 µM | > 10 | > 10 | > 10 | > 10 | > 10 | > 10 | > 10 | > 10 | > 10 | > 10 |  | > 10 | > 10 | > 10 | > 10 |  |  |  | 
COc1cc(C(C)c2cc3c(cc2OCCCCCOc2cc4c(cc2C(C)c2cc(OC)c(OC)c(OC)c2)OCO4)OCO3)cc(OC)c1OC (configuration not stated) | > 100 µM | > 100 | > 100 | > 100 | > 100 | > 100 | > 100 | > 100 | > 100 | > 100 | > 100 | > 100 µM | > 100 | > 100 | > 100 | > 100 |  |  |  | 
O=C(CC(=O)n1nc(-c2ccccc2)c(N=Nc2ccc([N+](=O)[O-])cc2)c1-c1ccccc1)Nc1ccc(Cl)cc1 | 91.4 µM | > 100 | > 100 | > 100 | > 100 | 97 | 63.1 | > 100 | 66.1 | 70 | 80.8 | 24.9 µM | > 100 | 45.1 | 70.4 | > 100 |  |  |  | 
CC1(c2cccc(C(F)(F)F)c2)CC(c2cccc(C(F)(F)F)c2)=C(C#N)C(=C(C#N)C#N)N1 (configuration not stated) | 31.8 µM | 31.1 | 47 | 34 | 30.8 | 24.1 | 35 | 38.2 | 24.6 | 58.6 | 33.9 |  | 37.4 | 33.4 | 35.1 | 30.6 |  |  |  | 
COc1c(O)ccc(/C=N/NC(=S)NCOCCOC(C)=O)c1OC | > 100 µM | > 100 |  | > 100 | > 100 | > 100 | > 100 | > 100 | > 100 | > 100 | > 100 | > 100 µM | > 100 | > 100 | > 100 | > 100 |  |  |  | 
